Patent US20230263808A1 (UNIVERSITY OF FLORIDA RESEARCH FOUNDATION, INCORPORATED, priority 2020, published 2023)
“Also recorded” adds a separate entry of the source.

Legend:
C2C12 myoblasts = experiment: Mitochondrial potential, high-content imaging with MitoTracker dye; type: cell-based, mouse
Description: (§1) A) C2C12 myotubes were assayed for chymotrypsin-like proteasomal activity. […] C) Quantitation of the ICW in panel B. D) ICW for surface expression of Glut4 on L6 myotubes. E) ICW for insulin-induced incorporation of puromycin into C2C12 myotube surface proteins. F-G) High-content imaging and analysis of C2C12 myoblasts stained with a Mitotracker dye. H) Assay reproducibility from screening 22 compounds on two separate occasions. The Pearson correlation coefficient, r, and its associated p-value is indicated.
(§2) A) Each dot represents the effects of a compound in the indicated assays at 10 uM. N=4-6 from two different experiments. […] C) SR11466 is efficacious at inhibiting IL-6 secretion from A549 cells. C-E). […] D) Mitochondrial activity was measured in myoblasts using high content imaging with mitotracker dye after 24 treatment. New amino acid incorporation was measured with LICOR in cell western for puromycin (SunSet assay). E) top, MMTV-luciferase reporter data. N=3, mean+SEM. Bottom, Mineralization of primary human OBs was assayed after two weeks of differentiation from MSC and two weeks of mineralization. N=4, mean+SEM, 2-way ANOVA.
(§3) Physiologically, the effects of GCs on protein balance and Glut4 translocation vary in vivo depending upon the stressor. For example, GCs mediate atrophy in response to fasting but not exercise. […] To assess protein degradation, we measured chymotrypsin-like proteasomal activity (FIG. 2, A). The activating phosphorylation of AKT at Thr308 (pAKT) was measured using a LI-COR In-Cell Western assay (FIG. 2, B and C). The rate-limiting step in insulin-mediated glucose uptake is the translocation of the glucose transporter, Glut4, to the surface membrane, which we also measured by In-Cell Western without permeabilizing the myotubes (FIG. 2, D). Surface Sensing of Translation (SUnSET) (Schmidt et al., Nat Methods 6, 275-277, 2009) assay was used to measure protein synthesis by In-Cell Western, following treatment of myotubes with a low dose of puromycin, which incorporates into translating proteins, but at a low enough level to provide a readout for global protein synthesis (FIG. 2, E). Lastly, we developed a high-content imaging assay in myoblasts stained with a MitoTracker dye, so that individual mitochondrial networks could be visualized with adequate resolution to quantitate area, segmentation, branching, and fluorescence intensity which is a measure of mitochondrial membrane potential (ψm).

C2C12 myotubes [1] = experiment: Protein degradation: chymotrypsin-like proteasomal activity in C2C12 myotubes; type: cell-based, mouse
Description: as §1
(§4) C2C12 myocytes were used in all assays, except in the Glut4 translocation assay where L6 rat myocytes were used. ICW, In-Cell Western. Also see Methods.
(§5) To avoid such effects on myogenesis, we switched myoblasts to differentiation media, and then on day 4, added 10 μM cytarabine, a chemotherapy agent that kills dividing cells, and then adding GCs on day 6 or 7 and completing assays in day 8 (FIG. 8).
as §3, with “Lastly, we developed a high-content imaging assay in myoblasts stained with a MitoTracker dye, so that individual mitochondrial networks could be visualized with adequate resolution to quantitate area, segmentation, branching, and fluorescence intensity which is a measure of mitochondrial membrane potential (ψm).” left out

L6 myotubes = experiment: Glut4 translocation to the myotube surface (In-Cell Western); type: cell-based, rat
Description: as §1, §4, §3

[2] = test system: mitochondrial activity, pAKT, protein synthesis, and bone; experiment: Compound profiling platform, overall profile (FIG. 15); type: cell-based; details: for overall profile in compound profiling (anabolic effects, agonism): 10 uM
Description: N=4-6 from two different experiments. […] D) Mitochondrial activity was measured in myoblasts using high content imaging with mitotracker dye after 24 treatment. New amino acid incorporation was measured with LICOR in cell western for puromycin (SunSet assay). […] N=3, mean+SEM. […] N=4, mean+SEM, 2-way ANOVA.
as §5, §3
Additional studies were performed to assess activities of the various compounds identified from the previous profiling.

[3] = test system: primary human osteoblasts; experiment: Osteoblast mineralization (Alizarin Red S) from mesenchymal stem cells; type: cell-based
Description: as §2
As a further test for dissociation, the compounds were profiled in primary human osteoblasts for effects on osteogenesis during 4 weeks of differentiation from mesenchymal stem cells. Specifically, osteoblast mineralization was examined as follows. Human mesenchymal stem cells (MSCs) at passage 2 were maintained in growth media consisted of alpha-MEM (Life Technologies, 32561-037) supplemented with 17% FBS (Sigma-Aldrich, 12303C), 2 mM L-glutarnine (Life Technologies, 25030-081), and 100 units/mL penicillin/streptomycin (Life Technologies, 15140-122). Effect of glucocorticoid receptor modulators on osteogenic differentiation of MSCs was quantified using Alizarin Red S (Sigma-Aldrich, A5533) staining. Briefly, human MSCs were seeded in the middle 8 wells of 48-well plates at plating density of 10,000 cells per well. PBS (Life Technologies, 10010-031) was added to surrounding wells to reduce evaporation of media in the middle wells during prolonged incubation. 24 h later, growth media was replaced by osteogenic induction media (OIM) consisted of low-glucose DMEM (Life Technologies, 10567-014) supplemented with 10% FBS (Sigma-Aldrich. 12303C), 50 μg/ml L-ascorbic-2-phosphate (Sigma-Aldrich, A8960), 10 mM β-glyceroiphosphate (Sigma-Aldrich, G9891), and glucocorticoid modulators. OIM containing test compounds was replaced every week. At the end of 2 weeks, monolayers were washed with PBS (Life Technologies, 10010-031), incubated in Richard-Allan Scientific™ Neutral Buffered Formalin (10%) (Thermo Scientific, 5725) for 2 h at room temperature, washed with deionized water and stained with Alizarin Red S for 30 min at room temperature. Monolayers were then rinsed 3×with deionized water until clear, stain was then extracted with 10% (w/v) cetylpyridinium chloride (Sigma-Aldrich, C0732) in 10 mM sodium phosphate (Sigma, S5011 and S5136), pH 7.0 for 15 min at room temperature and the amount of extracted dye quantified spectroscopically at 562 nm. Spectroscopic analysis performed using a synergy™ NEO HTS Multi-Mode Microplate Reader (BioTek Instruments, Inc.).

GILZ mRNA = experiment: GILZ gene expression; type: cell-based
[4] = test system: IL-1β-induced IL-6 secretion by A549 lung cells; experiment: IL-1β-induced IL-6 secretion by A549 lung cells (AlphaLISA); type: cell-based; details: 10 μM
Excerpt: (§6) A) Correlation of correlation (COC) plots where each point represents the Pearson correlation coefficient, r, between a distinct gene expression or GR-peptide interaction assay with assays indicated on the x and y axes. B) The effects of all tested compounds on IL-1β-induced secretion of IL-6 (y axes) and GC-regulated phenotypes indicated on the x axes. C) The effects of all tested compounds on IL-1β-induced secretion of IL-6 (y axis) and bone mineralization (x axis). D) IL-1β-induced IL-6 production by A549 cells treated with 10 μM of the indicated compounds was compared by AlphaLISA. E-H) Myoblasts were assayed as described in FIG. 8. I) Representative myoblasts imaged during the mitochondrial potential assay. J) Plasma TNFα levels of C57BL/6 male mice treated pretreated with the indicated ligands. K) Changes in lean mass of mice in panel J were determined by whole-body NMR after an additional 18 h LPS treatment. Data shown are mean+SEM.
In order to understand whether effects on skeletal muscle could be dissociated from anti-inflammatory effects of the ligands, we profiled the compounds for suppression of IL1β-induced IL-6 secretion by A549 lung cells. Examining the correlations between assays can be used to identify dissociated assays that selectively correlate with a given phenotype, predicting discovery of dissociated ligands. […] We call this a correlation of correlations (COC) plot. […] These include recruitment of NCOA2 and NCOA3 peptides, coactivators that we and others have shown to be required for GC-dependent suppression of inflammation in different cell types (FIG. 11, A). However, for the mitochondrial assay and IL-6, there are dissociated assays shown by points that are far out from the regression line in the COC plot (FIG. 7, A). For example, interaction of CHD9 with GR predicted mitochondrial activity but not Glut4 translocation (FIG. 11, B), while interaction with the CENPR peptide selectively predicted effects on Glut4 translocation (FIG. 11, C). […] Assays that correlated with effects of the ligands on GR nuclear translocation were also highly correlated with Glut4 translocation and suppression of IL-6 secretion (FIG. 11, F). Therefore, the COC curves provide a way to identify common signaling mechanisms between different GR target tissues and signaling pathways.

[5] = background statement; cited from earlier work
pAKT in C2C12 myotubes = experiment: Insulin-induced pAKT (Thr308) In-Cell Western; type: cell-based, mouse
Description: as §1
A) Pearson correlations were calculated between the indicated variables. The different lines indicate statistically significant correlations at the corresponding p-value thresholds. Solid lines indicate positive correlations, dashed lines indicate negative correlations. […]
Physiologically, the effects of GCs on protein balance and Glut4 translocation vary in vivo depending upon the stressor. […] To assess protein degradation, we measured chymotrypsin-like proteasomal activity (FIG. 2, A). The activating phosphorylation of AKT at Thr308 (pAKT) was measured using a LI-COR In-Cell Western assay (FIG. 2, B and C). The rate-limiting step in insulin-mediated glucose uptake is the translocation of the glucose transporter, Glut4, to the surface membrane, which we also measured by In-Cell Western without permeabilizing the myotubes (FIG. 2, D). […]

[6] = Lactate-tolerance test (rate of glucose production); type: in vivo, C57BL/6 male mice; details: after overnight fast; 10 mg/kg Dex or SR16024, 50 mg/kg SR11466
Excerpt: A) The effects of all tested compounds on IL-1β-induced IL-6 production (x-axes) versus GR interaction with the indicated peptides. B-C) The effects of all tested compounds on the indicated GC-regulated phenotypes (x-axes) versus GR interaction with the CHD9_1023 and CENPR_1 peptides (y-axes). D-F) COC plots. Each point represents the Pearson correlation coefficient, r, between a distinct gene expression or GR-peptide interaction assay with assays indicated on the x and y axes. G) The effects of all tested compounds on IL-1β-induced IL-6 production (y-axes) versus insulin-induced protein synthesis. […] IL-β-induced IL-6 production by A549 cells treated with the indicated compounds was compared by AlphaLISA. […] Mice in panel K were subjected to a lactate-tolerance test (LTT).
We were also interested in whether the compounds would show dissociation between Glut4 translocation in skeletal muscle and gluconeogenesis in the liver, but enhanced glucose production is typically studied after weeks or months of GC treatment. However, we reasoned that an overnight fast should enable detection of effects after a single dose. […] Thus, profiling effects of GCs in the physiological context of nutrient deprivation allowed the discovery of two new types of glucocorticoids with improved profiles in skeletal muscle.

C2C12 myotubes [7] = experiment: Insulin-induced protein synthesis (SUnSET, In-Cell Western) in C2C12 myotubes; type: cell-based, mouse; details: fasting conditions
Description: as §1, §4, §5, §3

LPS-induced TNFα = experiment: LPS-induced plasma TNFα levels in mice; type: in vivo, C57BL/6 male mice; details: mice pretreated with ligand
Excerpt: as §6

myoblasts = experiment: Myoblast proliferation and fusion into myotubes; type: cell-based
[8] = Loss of lean mass after a larger dose of LPS (whole-body NMR); type: in vivo, C57BL/6 male mice; details: additional 18 h LPS treatment
Excerpt: as §6

Compound: Cc1ncccc1NC(=O)c1ccc2c(c1)CC[C@@H]1C[C@@](O)(C(F)(F)F)CC[C@@]21Cc1ccccc1 [PF802, reference compound]
- effect on mitochondrial activity / potential (C2C12 myoblasts): strongly inhibited
- effect on protein degradation (proteasomal) (C2C12 myotubes [1]): stimulated protein degradation as strongly as Dex
- effect on Glut4 translocation (L6 myotubes): slightly improved compared to Dex
- overall profile in compound profiling (anabolic effects, agonism) [2]: partial agonist

Compound: CC#CC1(O)CCC2C3CCc4cc(C(=O)Nc5cccnc5C)ccc4C3C(OCc3cccc(Cl)c3)CC21C (stereo not drawn) [SR16023]
- overall profile in compound profiling (anabolic effects, agonism) [2]: anabolic effects

Compound: C[C@]12CC[C@H]3[C@@H](CCC4=CC(=O)CC[C@@]43C)[C@@H]1CC[C@@H]2O [testosterone, reference compound]
- effect on mineralization (bone) [3]: no effect

Compound: CC#CC1(O)CCC2C3CCc4cc(C(=O)Nc5cccnc5C)ccc4C3C(OCc3ccccc3)CC21C (stereo not drawn) [SR11469]
- overall profile in compound profiling (anabolic effects, agonism) [2]: more antagonistic SGRMs; also recorded: anabolic effects
- GILZ gene expression (GILZ mRNA): not activating GILZ
- inhibition of IL-1β-induced IL-6 secretion (anti-inflammatory) [4]: weakly anti-inflammatory

Compound: C[C@@H]1C[C@H]2[C@@H]3CCC4=CC(=O)C=C[C@]4(C)[C@@]3(F)[C@@H](O)C[C@]2(C)[C@@]1(O)C(=O)CO [Dex, dexamethasone, reference compound]
- Dex concentration sufficient to produce the maximal loss of mitochondrial oxidative capacity (C2C12 myoblasts): 1 nM
- effect on mitochondrial activity / potential (C2C12 myoblasts): strongly inhibited; also recorded: reduced
- concentration required for effects on protein balance in vitro [5]: 50 to 100 µM
- effect on protein degradation (proteasomal) (C2C12 myotubes [1]): stimulated protein degradation
- potency for modulating Glut4 translocation (L6 myotubes; fasting conditions): low nM
- insulin-mediated pAKT after 1 hr of treatment (pAKT in C2C12 myotubes; 1 hr treatment): not inhibited
- potency for modulating pAKT (pAKT in C2C12 myotubes; fasting conditions): low nM
- rate of glucose production in lactate tolerance test [6]: increased the rate of glucose production
- dosing at which effects on the insulin signaling pathway are shown ([2]; myotubes, serum starvation, insulin challenge, cytarabine treatment): 1 to 10 nM
- potency for modulating protein synthesis (C2C12 myotubes [7]): low nM
- LPS-induced TNFα levels in the blood (LPS-induced TNFα): strongly suppressed
- fusion into myotubes (myoblasts): promotes fusion
- myoblast proliferation (myoblasts): strongly inhibits
- loss of lean mass following a larger dose of LPS [8]: significantly worsened

Compound: CC#CC1(O)CCC2C3CCc4cc(C(=O)Nc5ccc(C)nc5)ccc4C3C(O)CC21C (stereo not drawn) [SR15419]
- overall profile in compound profiling (anabolic effects, agonism) [2]: anabolic effects

Compound: CC#CC1(O)CCC2C3CCc4cc(C(=O)Nc5cccnc5C)ccc4C3C(OCC)CC21C (stereo not drawn) [SR15961]
- inhibition of IL-1β-induced IL-6 secretion (anti-inflammatory) [4]: fully inhibiting IL-6 secretion

Compound: CC#CC1(O)CCC2C3CCc4cc(C(=O)Nc5ncccc5C)ccc4C3C(O)CC21C (stereo not drawn) [SR15438]
- overall profile in compound profiling (anabolic effects, agonism) [2]: anabolic effects

Compound: CC#CC1(O)CCC2C3CCc4cc(C(=O)Nc5cccnc5C)ccc4C3C(OC)CC21C (stereo not drawn) [SR15960]
- inhibition of IL-1β-induced IL-6 secretion (anti-inflammatory) [4]: fully inhibiting IL-6 secretion
